# From US10906873B2, “Substituted cyclic amides as herbicides” (FMC Corporation, priority 2015, dated 2021)
# Test system: pigweed (Amaranthus retroflexus)
# Assay: Test A preemergence, pigweed
# Assay type: in vivo
# Conditions: 125 g ai/ha, 0 to 100 scale
# Description: (§1) Seeds of plant species selected from barnyardgrass (Echinochloa crus-galli), crabgrass (large crabgrass, Digitaria sanguinalis), kochia (Kochia scoparia), ragweed (common ragweed, Ambrosia elatior), morningglory (Ipomoea spp.), velvetleaf (Abutilon theophrasti), ryegrass, It. (Italian ryegrass, Lolium multiflorum), foxtail, giant (giant foxtail, Setaria faberii), wheat (Triticum aestivum), corn (Zea mays), and pigweed (Amaranthus retroflexus), were planted into a blend of loam soil and sand and treated preemergence with a directed soil spray using test chemicals formulated in a non-phytotoxic solvent mixture which included a surfactant. At the same time, plants selected from these crop and weed species and also blackgrass (Alopecurus myosuroides), and galium (catchweed bedstraw, Galium aparine), were planted in pots containing the same blend of loam soil and sand and treated with postemergence applications of test chemicals formulated in the same manner. Plants ranged in height from 2 to 10 cm and were in the one- to two-leaf stage for the postemergence treatment. Treated plants and untreated controls were maintained in a greenhouse for approximately 10 d, after which time all treated plants were compared to untreated controls and visually evaluated for injury. Plant response ratings, summarized in Table A, are based on a 0 to 100 scale where 0 is no effect and 100 is complete control. A dash (-) response means no test result.
row,SMILES,"Plant response rating, Pigweed"
1,O=C1NCC(/C=C/c2ccc(F)cc2)C1C(=O)Nc1ccccc1F (stereo not shown) [Compound 27],0

# Same assay, conditions: 500 g ai/ha, 0 to 100 scale
row,SMILES,"Plant response rating, Pigweed"
1,O=C1NCC(/C=C/c2ccc(F)cc2)C1C(=O)Nc1ccccc1F (stereo not shown) [Compound 27],0

# Test system: barnyardgrass (Echinochloa crus-galli)
# Assay: Test A postemergence, barnyardgrass
# Assay type: in vivo
# Conditions: 125 g ai/ha, 0 to 100 scale
# Description: as §1
row,SMILES,"Plant response rating, Barnyardgrass"
1,O=C1NCC(/C=C/c2ccc(F)cc2)C1C(=O)Nc1ccccc1F (stereo not shown) [Compound 27],0

# Same assay, conditions: 500 g ai/ha, 0 to 100 scale
row,SMILES,"Plant response rating, Barnyardgrass"
1,O=C1NCC(/C=C/c2ccc(F)cc2)C1C(=O)Nc1ccccc1F (stereo not shown) [Compound 27],60

# Test system: ryegrass, It. (Italian ryegrass, Lolium multiflorum)
# Assay: Test A preemergence, ryegrass, It.
# Assay type: in vivo
# Conditions: 125 g ai/ha, 0 to 100 scale
# Description: as §1
row,SMILES,"Plant response rating, Ryegrass, It."
1,O=C1NCC(/C=C/c2ccc(F)cc2)C1C(=O)Nc1ccccc1F (stereo not shown) [Compound 27],0

# Same assay, conditions: 500 g ai/ha, 0 to 100 scale
row,SMILES,"Plant response rating, Ryegrass, It."
1,O=C1NCC(/C=C/c2ccc(F)cc2)C1C(=O)Nc1ccccc1F (stereo not shown) [Compound 27],20

# Test system: pigweed (Amaranthus retroflexus)
# Assay: Test A postemergence, pigweed
# Assay type: in vivo
# Conditions: 125 g ai/ha, 0 to 100 scale
# Description: as §1
row,SMILES,"Plant response rating, Pigweed"
1,O=C1NCC(/C=C/c2ccc(F)cc2)C1C(=O)Nc1ccccc1F (stereo not shown) [Compound 27],0

# Same assay, conditions: 500 g ai/ha, 0 to 100 scale
row,SMILES,"Plant response rating, Pigweed"
1,O=C1NCC(/C=C/c2ccc(F)cc2)C1C(=O)Nc1ccccc1F (stereo not shown) [Compound 27],20

# Test system: ducksalad (Heteranthera limosa)
# Assay: Test B flooded paddy test, ducksalad
# Assay type: in vivo
# Conditions: Flood, 250 g ai/ha; scale of 0 to 100 where 0 is no effect and 100 is complete control; 13 to 15 d
# Protocol: (§2) Plant species in the flooded paddy test selected from rice (Oryza sativa), sedge, umbrella (small-flower umbrella sedge, Cyperus difformis), ducksalad (Heteranthera limosa), and barnyardgrass (Echinochloa crus-galli) were grown to the 2-leaf stage for testing. At time of treatment, test pots were flooded to 3 cm above the soil surface, treated by application of test compounds directly to the paddy water, and then maintained at that water depth for the duration of the test. Treated plants and controls were maintained in a greenhouse for 13 to 15 d, after which time all species were compared to controls and visually evaluated. Plant response ratings, summarized in Table B, are based on a scale of 0 to 100 where 0 is no effect and 100 is complete control. A dash (-) response means no test result.
row,SMILES,"Plant response rating, Ducksalad"
1,O=C1NCC(/C=C/c2ccc(F)cc2)C1C(=O)Nc1ccccc1F (stereo not shown) [Compound 27],80

# Test system: sedge, umbrella (small-flower umbrella sedge, Cyperus difformis)
# Assay: Test B flooded paddy test, sedge, umbrella
# Assay type: in vivo
# Conditions: Flood, 250 g ai/ha; scale of 0 to 100 where 0 is no effect and 100 is complete control; 13 to 15 d
# Protocol: as §2
row,SMILES,"Plant response rating, Sedge, Umbrella"
1,O=C1NCC(/C=C/c2ccc(F)cc2)C1C(=O)Nc1ccccc1F (stereo not shown) [Compound 27],0

# Test system: galium (catchweed bedstraw, Galium aparine)
# Assay: Test A postemergence, galium
# Assay type: in vivo
# Conditions: 125 g ai/ha, 0 to 100 scale
# Description: as §1
row,SMILES,"Plant response rating, Galium"
1,O=C1NCC(/C=C/c2ccc(F)cc2)C1C(=O)Nc1ccccc1F (stereo not shown) [Compound 27],0

# Same assay, conditions: 500 g ai/ha, 0 to 100 scale
row,SMILES,"Plant response rating, Galium"
1,O=C1NCC(/C=C/c2ccc(F)cc2)C1C(=O)Nc1ccccc1F (stereo not shown) [Compound 27],0

# Test system: foxtail, giant (giant foxtail, Setaria faberii)
# Assay: Test A preemergence, foxtail, giant
# Assay type: in vivo
# Conditions: 125 g ai/ha, 0 to 100 scale
# Description: as §1
row,SMILES,"Plant response rating, Foxtail, Giant"
1,O=C1NCC(/C=C/c2ccc(F)cc2)C1C(=O)Nc1ccccc1F (stereo not shown) [Compound 27],0

# Same assay, conditions: 500 g ai/ha, 0 to 100 scale
row,SMILES,"Plant response rating, Foxtail, Giant"
1,O=C1NCC(/C=C/c2ccc(F)cc2)C1C(=O)Nc1ccccc1F (stereo not shown) [Compound 27],60

# Test system: blackgrass (Alopecurus myosuroides)
# Assay: Test A postemergence, blackgrass
# Assay type: in vivo
# Conditions: 125 g ai/ha, 0 to 100 scale
# Description: as §1
row,SMILES,"Plant response rating, Blackgrass"
1,O=C1NCC(/C=C/c2ccc(F)cc2)C1C(=O)Nc1ccccc1F (stereo not shown) [Compound 27],0

# Same assay, conditions: 500 g ai/ha, 0 to 100 scale
row,SMILES,"Plant response rating, Blackgrass"
1,O=C1NCC(/C=C/c2ccc(F)cc2)C1C(=O)Nc1ccccc1F (stereo not shown) [Compound 27],0

# Test system: rice (Oryza sativa)
# Assay: Test B flooded paddy test, rice
# Assay type: in vivo
# Conditions: Flood, 250 g ai/ha; scale of 0 to 100 where 0 is no effect and 100 is complete control; 13 to 15 d
# Protocol: as §2
row,SMILES,"Plant response rating, Rice"
1,O=C1NCC(/C=C/c2ccc(F)cc2)C1C(=O)Nc1ccccc1F (stereo not shown) [Compound 27],0

# Test system: ragweed (common ragweed, Ambrosia elatior)
# Assay: Test A postemergence, ragweed
# Assay type: in vivo
# Conditions: 125 g ai/ha, 0 to 100 scale
# Description: as §1
row,SMILES,"Plant response rating, Ragweed"
1,O=C1NCC(/C=C/c2ccc(F)cc2)C1C(=O)Nc1ccccc1F (stereo not shown) [Compound 27],0

# Same assay, conditions: 500 g ai/ha, 0 to 100 scale
row,SMILES,"Plant response rating, Ragweed"
1,O=C1NCC(/C=C/c2ccc(F)cc2)C1C(=O)Nc1ccccc1F (stereo not shown) [Compound 27],0

# Test system: foxtail, giant (giant foxtail, Setaria faberii)
# Assay: Test A postemergence, foxtail, giant
# Assay type: in vivo
# Conditions: 125 g ai/ha, 0 to 100 scale
# Description: as §1
row,SMILES,"Plant response rating, Foxtail, Giant"
1,O=C1NCC(/C=C/c2ccc(F)cc2)C1C(=O)Nc1ccccc1F (stereo not shown) [Compound 27],0

# Same assay, conditions: 500 g ai/ha, 0 to 100 scale
row,SMILES,"Plant response rating, Foxtail, Giant"
1,O=C1NCC(/C=C/c2ccc(F)cc2)C1C(=O)Nc1ccccc1F (stereo not shown) [Compound 27],70

# Test system: barnyardgrass (Echinochloa crus-galli)
# Assay: Test A preemergence, barnyardgrass
# Assay type: in vivo
# Conditions: 125 g ai/ha, 0 to 100 scale
# Description: as §1
row,SMILES,"Plant response rating, Barnyardgrass"
1,O=C1NCC(/C=C/c2ccc(F)cc2)C1C(=O)Nc1ccccc1F (stereo not shown) [Compound 27],0

# Same assay, conditions: 500 g ai/ha, 0 to 100 scale
row,SMILES,"Plant response rating, Barnyardgrass"
1,O=C1NCC(/C=C/c2ccc(F)cc2)C1C(=O)Nc1ccccc1F (stereo not shown) [Compound 27],50

# Test system: ragweed (common ragweed, Ambrosia elatior)
# Assay: Test A preemergence, ragweed
# Assay type: in vivo
# Conditions: 125 g ai/ha, 0 to 100 scale
# Description: as §1
row,SMILES,"Plant response rating, Ragweed"
1,O=C1NCC(/C=C/c2ccc(F)cc2)C1C(=O)Nc1ccccc1F (stereo not shown) [Compound 27],0

# Same assay, conditions: 500 g ai/ha, 0 to 100 scale
row,SMILES,"Plant response rating, Ragweed"
1,O=C1NCC(/C=C/c2ccc(F)cc2)C1C(=O)Nc1ccccc1F (stereo not shown) [Compound 27],30

# Test system: kochia (Kochia scoparia)
# Assay: Test A preemergence, kochia
# Assay type: in vivo
# Conditions: 125 g ai/ha, 0 to 100 scale
# Description: as §1
row,SMILES,"Plant response rating, Kochia"
1,O=C1NCC(/C=C/c2ccc(F)cc2)C1C(=O)Nc1ccccc1F (stereo not shown) [Compound 27],0

# Same assay, conditions: 500 g ai/ha, 0 to 100 scale
row,SMILES,"Plant response rating, Kochia"
1,O=C1NCC(/C=C/c2ccc(F)cc2)C1C(=O)Nc1ccccc1F (stereo not shown) [Compound 27],40

# Test system: barnyardgrass (Echinochloa crus-galli)
# Assay: Test B flooded paddy test, barnyardgrass
# Assay type: in vivo
# Conditions: Flood, 250 g ai/ha; scale of 0 to 100 where 0 is no effect and 100 is complete control; 13 to 15 d
# Protocol: as §2
row,SMILES,"Plant response rating, Barnyardgrass"
1,O=C1NCC(/C=C/c2ccc(F)cc2)C1C(=O)Nc1ccccc1F (stereo not shown) [Compound 27],0

# Test system: wheat (Triticum aestivum)
# Assay: Test A postemergence, wheat
# Assay type: in vivo
# Conditions: 125 g ai/ha, 0 to 100 scale
# Description: as §1
row,SMILES,"Plant response rating, Wheat"
1,O=C1NCC(/C=C/c2ccc(F)cc2)C1C(=O)Nc1ccccc1F (stereo not shown) [Compound 27],0

# Same assay, conditions: 500 g ai/ha, 0 to 100 scale
row,SMILES,"Plant response rating, Wheat"
1,O=C1NCC(/C=C/c2ccc(F)cc2)C1C(=O)Nc1ccccc1F (stereo not shown) [Compound 27],0

# Test system: ryegrass, It. (Italian ryegrass, Lolium multiflorum)
# Assay: Test A postemergence, ryegrass, It.
# Assay type: in vivo
# Conditions: 125 g ai/ha, 0 to 100 scale
# Description: as §1
row,SMILES,"Plant response rating, Ryegrass, It."
1,O=C1NCC(/C=C/c2ccc(F)cc2)C1C(=O)Nc1ccccc1F (stereo not shown) [Compound 27],0

# Same assay, conditions: 500 g ai/ha, 0 to 100 scale
row,SMILES,"Plant response rating, Ryegrass, It."
1,O=C1NCC(/C=C/c2ccc(F)cc2)C1C(=O)Nc1ccccc1F (stereo not shown) [Compound 27],0

# Test system: corn (Zea mays)
# Assay: Test A postemergence, corn
# Assay type: in vivo
# Conditions: 125 g ai/ha, 0 to 100 scale
# Description: as §1
row,SMILES,"Plant response rating, Corn"
1,O=C1NCC(/C=C/c2ccc(F)cc2)C1C(=O)Nc1ccccc1F (stereo not shown) [Compound 27],0

# Same assay, conditions: 500 g ai/ha, 0 to 100 scale
row,SMILES,"Plant response rating, Corn"
1,O=C1NCC(/C=C/c2ccc(F)cc2)C1C(=O)Nc1ccccc1F (stereo not shown) [Compound 27],0
